Experimental data reported in patent US20240124442A1, “TRICYCLIC-AMIDO-BICYCLIC PRMT5 INHIBITORS” (AMGEN INC., priority 2021, published 2024).

What was measured:
HCT116 MTAP null cells = test: HCT116 MTAP null cell line proliferation / cell viability (CellTiter-Glo, 6 days); format: cell-based; conditions: 144 h; HCT116 MTAP null cells, 6 days treatment, CellTiter-Glo cell viability; read-out: HCT-116 MTAP null IC50
Outline: (§1)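 Isogenic HCT116 parent and MTAP-knockout cells in RPMI 1640 + 10% FBS, plated overnight, then exposed to compound for 6 days (37 °C, 5% CO2). Viability by CellTiter-Glo luminescence. Dilutions: 8–9 points from 1 or 10 μM (1:3), or 22 points from 10 or 50 μM (1:2); IC50 by 4-parameter or Hill −1 fit.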

HCT116 WT cells = test: HCT116 WT (parent) cell line proliferation / cell viability (CellTiter-Glo, 6 days); format: cell-based; conditions: Homo sapiens, HCT-116, 144 h, 6 days treatment
Outline: as §1

Row | SMILES | IC50 (HCT116 MTAP null cells) [nM] | IC50 (HCT116 WT cells) [nM]
1 | Cc1nc2nc(N)c3cnn(C)c3c2cc1C(=O)N(C)[C@@H]1COCc2cc(C(F)(F)F)ccc21 [Example 300, 4-amino-N,1,7-trimethyl-N-((4S)-7-(trifluoromethyl)-3,4-dihydro-1H-2-benzopyran-4-yl)-1H-pyrazolo[4,3-c][1,8]-naphthyridine-8-carboxamide] | 16 | 225
2 | Cc1nc2nc(N)c3cnn(C)c3c2cc1C(=O)N(C)[C@@H]1COCc2nc(C(F)(F)F)ccc21 [Example 301, 4-amino-N,1,7-trimethyl-N-((5S)-2-(trifluoromethyl)-5,8-dihydro-6H-pyrano[3,4-b]pyridin-5-yl)-1H-pyrazolo-[4,3-c][1,8]naphthyridine-8-carboxamide] | 28 | 1250
3 | CN(C(=O)c1cc2c(cc1C(F)(F)F)nc(N)c1cnn(C)c12)[C@@H]1COCc2cc(C(F)(F)F)ccc21 [Example 302, 4-amino-N,1-dimethyl-7-(trifluoromethyl)-N-((4S)-7-(trifluoromethyl)-3,4-dihydro-1H-2-benzopyran-4-yl)-1H-pyrazolo[4,3-c]quinoline-8-carboxamide] | 6 | 161
4 | CN(C(=O)c1cc2c(cc1C(F)(F)F)nc(N)c1cnn(C)c12)[C@@H]1COCc2nc(C(F)(F)F)ccc21 [Example 303, 4-amino-N,1-dimethyl-7-(trifluoromethyl)-N-((5S)-2-(trifluoromethyl)-5,8-dihydro-6H-pyrano[3,4-b]pyridin-5-yl)-1H-pyrazolo[4,3-c]quinoline-8-carboxamide] | 14 | 902
5 | CN(C(=O)c1cc2c(cn1)nc(N)c1c2cnn1C)[C@@H]1COCc2nc(C(F)(F)F)ccc21 [Example 304, 4-amino-N,3-dimethyl-N-((5S)-2-(trifluoromethyl)-5,8-dihydro-6H-pyrano[3,4-b]pyridin-5-yl)-3H-pyrazolo[3,4-c][1,7]naph-thyridine-8-carboxamide] | 198 | 9230
6 | CCN(C(=O)c1cc2c(cc1F)nc(N)c1c2cnn1C)[C@@H]1COCc2nc(C(F)(F)F)ccc21 [Example 305, 4-amino-N-ethyl-7-fluoro-3-methyl-N-((5S)-2-(trifluoro-methyl)-5,8-dihydro-6H-pyrano[3,4-b]pyridin-5-yl)-3H-pyrazolo[3,4-c]quinoline-8-carboxamide] | 20 | 429
7 | CN(C(=O)c1cc2c(cc1F)nc(N)c1c2cnn1C)C1COCc2cc(OC(F)(F)F)ccc21 [Example 306, 4-amino-7-fluoro-N,3-dimethyl-N-((4R)-7-(trifluoromethoxy)-3,4-dihydro-1H-2-benzopyran-4-yl)-3H-pyrazolo[3,4-c]quin-oline-8-carboxamide and 4-amino-7-fluoro-N,3-dimethyl-N-((4S)-7-(trifluoromethoxy)-3,4-dihydro-1H-2-benzopyran-4-yl)-3H-pyrazolo[3,4-c]quin-oline-8-carboxamide] | 111 | 5060
8 | CCN(C(=O)c1cc2c(cc1C)nc(N)c1c2cnn1C)[C@@H]1COCc2nc(C(F)(F)F)ccc21 [Example 307, 4-amino-N-ethyl-3,7-dimethyl-N-((5S)-2-(trifluoromethyl)-5,8-dihydro-6H-pyrano[3,4-b]-pyridin-5-yl)-3H-pyrazolo-[3,4-c]quinoline-8-carboxamide] | 19 | 471
9 | Cc1n[nH]c2c1c(N)nc1ccc(C(=O)N(C)[C@@H]3COCc4nc(C(F)(F)F)ccc43)cc12 [Example 308, 4-amino-N,3-dimethyl-N-((5S)-2-(trifluoromethyl)-5,8-dihydro-6H-pyrano[3,4-b]pyridin-5-yl)-1H-pyrazolo[4,3-c]quinoline-8-carboxamide] | 76 | 4130
10 | Cc1nn(C)c2c1c(N)nc1ccc(C(=O)N(C)[C@@H]3COCc4nc(C(F)(F)F)ccc43)cc12 [Example 309, 4-amino-N,1,3-trimethyl-N-((5S)-2-(trifluoromethyl)-5,8-dihydro-6H-pyrano[3,4-b]pyr-idin-5-yl)-1H-pyrazolo[4,3-c]-quinoline-8-carboxamide] | 150 | 9590
11 | Cc1n[nH]c2c1c(N)nc1cnc(C(=O)N(C)[C@@H]3COCc4nc(C(F)(F)F)ccc43)cc12 [Example 310, 4-amino-N,3-dimethyl-N-((5S)-2-(trifluoromethyl)-5,8-dihydro-6H-pyrano[3,4-b]pyridin-5-yl)-1H-pyrazolo-[4,3-c][1,7]naphthyridine-8-carboxamide] | 110 | 7380
12 | Cc1nn(C)c2c1c(N)nc1cnc(C(=O)N(C)[C@@H]3COCc4cc(C(F)(F)F)ccc43)cc12 [Example 311, 4-amino-N,1,3-trimethyl-N-((4S)-7-(trifluoromethyl)-3,4-dihydro-1H-2-benzopyran-4-yl)-1H-pyrazolo[4,3-c][1,7]-naphthyridine-8-carboxamide] | 30 | 1020
13 | Cc1nn(C)c2c1c(N)nc1cnc(C(=O)N(C)[C@@H]3COCc4nc(C(F)(F)F)ccc43)cc12 [Example 312, 4-amino-N,1,3-trimethyl-N-((5S)-2-(trifluoromethyl)-5,8-dihydro-6H-pyrano[3,4-b]-pyridin-5-yl)-1H-pyrazolo-[4,3-c][1,7]naphthyridine-8-carboxamide] | 103 | 9480
14 | Cc1nn(C)c2c1c(N)nc1cc(F)c(C(=O)N(C)[C@@H]3COCc4cc(C(F)(F)F)ccc43)cc12 [Example 313, 4-amino-7-fluoro-N,1,3-trimeth-yl-N-((4S)-7-(trifluoromethyl)-3,4-dihydro-1H-2-benzopyran-4-yl)-1H-pyrazolo[4,3-c]quin-oline-8-carboxamide] | 14 | 523
15 | Cc1nn(C)c2c1c(N)nc1cc(F)c(C(=O)N(C)[C@@H]3COCc4nc(C(F)(F)F)ccc43)cc12 [Example 314, 4-amino-7-fluoro-N,1,3-trimeth-yl-N-((5S)-2-(trifluoromethyl)-5,8-dihydro-6H-pyrano[3,4-b]-pyridin-5-yl)-1H-pyrazolo[4,3-c]quinoline-8-carboxamide] | 41 | 2630
16 | CN(C(=O)c1ccc2nc(N)c(I)cc2c1)[C@@H]1COCc2nc(C(F)(F)F)ccc21 [Example 315, 2-amino-3-iodo-N-methyl-N-((5S)-2-(trifluoromethyl)-5,8-dihydro-6H-pyrano[3,4-b]pyridin-5-yl)-6-quinoline-carboxamide] | 508 | 13400
17 | Cc1cc2nc(N)c3cnn(C)c3c2cc1C(=O)N(C)C1CCOCc2nc(C(F)(F)F)ccc21 [Example 316, 4-amino-N,1,7-trimethyl-N-(5R)-2-(trifluoromethyl)-5,6,7,9-tetrahydrooxepino[3,4-b]pyridin-5-yl)-1H-pyrazolo-[4,3-c]quinoline-8-carboxamide and 4-amino-N,1,7-trimethyl-N-((5S)-2-(trifluoromethyl)-5,6,7,9-tetrahydrooxepino[3,4-b]pyridin-5-yl)-1H-pyrazolo-[4,3-c]quinoline-8-carboxamide] | 26 | 1720
18 | Nc1nc2cc(Cl)c(C(=O)N(C3CC3)[C@@H]3COc4cc(C(F)(F)F)ccc43)cc2c2c1COC2 [Example 442, (S)-4-amino-7-chloro-N-cyclopropyl-N-(6-(trifluoromethyl)-2,3-dihydrobenzofuran-3-yl)-1,3-dihydrofuro[3,4-c]quinoline-8-carboxamide] | 9 | 200
